The record followed here is patent publication US9505734B2, “Phenyl C-glucoside derivative containing deoxyglucose structure, preparation method and use thereof” (Tianjin Institute of Pharmaceutical Research, priority 2012, dated 2016).

Each structure is given as a SMILES string.

The subject of this experiment is SD rats (type 2 diabetes model). Put plainly: model for rat urine glucose excretion (glucose-oxidase method). As to conditions: for Urine glucose excretion (mg/200 g body weight of the rat): type 2 diabetes model SD rats, 6 mg/kg intragastrically, glucose 2 g/kg at 0.5 h, urine collected 0-12 h; for urine glucose excretion effect (in words): comparison in words, rat urine glucose excretion model, 6 mg/kg. Type of experiment: in vivo. On the procedure: The health SD rats are injected intraperitoneally with multiple low doses of streptozotocin for modeling (type 2 diabetes model) after feeding with high-fat and high-sucrose diet, and the content of blood glucose is measured before and after modeling. After the modeling successful, the rats for modeling are randomly divided (8 rats/group) into one blank group (administering the same volume of 0.5% CMC sodium solution) and several groups for compounds to be tested (6 mg/kg) according to the content of 24-hour urine glucose and the body weight. Rats in each group are fasted for 16 hours before experiment. The experimental rats are administered intragastrically with glucose (2 g/kg) at 0.5 h after intragastrical administration with compounds to be tested. The urine is collected at the time-period of 0-12 h after administration, and the urine glucose values are measured at each time-period by glucose-oxidase method.
The inhibiting activity of the cocrystal of I-D1-6 and L-proline on SGLT2 is measured by the model for rat urine glucose excretion.
The health SD rats are injected intraperitoneally with multiple low doses of streptozotocin for modeling (type 2 diabetes model) after feeding with high-fat and high-sucrose diet for one month, and the content of blood glucose is measured before and after modeling. After the modeling successful, the rats for modeling are randomly divided (8 rats/group) into one blank group (administering the same volume of 0.5% CMC sodium solution) and groups of tested compound (6 mg/kg) according to the content of 24-hour urine glucose and the body weight. Rats in each group are fasted for 16 hours before experiment. The experimental rats are administered intragastrically with the glucose (2 g/kg) at 0.5 h after intragastrical administration with the cocrystal of I-D1-6 and L-proline prepared in Example 138. The urine is collected at the time-period of 0-12 h after administration, and the urine glucose values are measured at each time-period by glucose-oxidase method.

Turning to `CCc1ccc(Cc2c(Cl)ccc3c2COC32OC(CO)C(O)CC2O)cc1` (centres unmarked) [drawing 246], the “Urine glucose excretion (mg/200 g body weight of the rat)” value is recorded as 712 mg/200 g body weight of the rat.

Take `CCc1ccc(Cc2cc(C3OC(CO)C(O)CC3O)ccc2Cl)cc1` (centres unmarked): the “Urine glucose excretion (mg/200 g body weight of the rat)” value is on record as 198 mg/200 g body weight of the rat. As for `Cc1ccc(C2OC(C)C(O)C(O)C2O)cc1Cc1ccc(-c2ccc(F)cc2)s1` (centres unmarked) [drawing 238], the “Urine glucose excretion (mg/200 g body weight of the rat)” value is recorded as 723 mg/200 g body weight of the rat. With `CCc1ccc(Cc2cc(C3OC(C)C(O)C(O)C3O)ccc2C)cc1` (centres unmarked), the “Urine glucose excretion (mg/200 g body weight of the rat)” value was 613 mg/200 g body weight of the rat. Turning to `CC1OC(c2ccc(F)c(Cc3cc4ccccc4s3)c2)CC(O)C1O` (centres unmarked) [drawing 253], the “Urine glucose excretion (mg/200 g body weight of the rat)” value is on record as 656 mg/200 g body weight of the rat. In the case of `OCC1OC(c2ccc(Cl)c(Cc3ccc(O[C@H]4CCOC4)cc3)c2)C(O)C(O)C1O` (some centres unmarked) [drawing 197], the “Urine glucose excretion (mg/200 g body weight of the rat)” value was 643 mg/200 g body weight of the rat. Consider `CCOc1ccc(Cc2cc(C3CC(O)C(O)C(CO)O3)ccc2Cl)cc1` (centres unmarked) [drawing 227], for which the “Urine glucose excretion (mg/200 g body weight of the rat)” value was 811 mg/200 g body weight of the rat. Still for that read-out and setting: for `CCOc1ccc(Cc2cc([C@]34OC[C@](CO)(O3)[C@@H](O)[C@H](O)[C@H]4O)ccc2Cl)cc1` [drawing 199] the value was 455 mg/200 g body weight of the rat. Same read-out and setting: then `CCOc1ccc(Cc2cc(C3OC(C)CC(O)C3O)ccc2Cl)cc1` (centres unmarked) [drawing 252], with 765 mg/200 g body weight of the rat; and `CCOc1ccc(Cc2cc([C@]34OC[C@](C)(O3)[C@@H](O)[C@H](O)[C@H]4O)ccc2Cl)cc1` [drawing 250], with 665 mg/200 g body weight of the rat; and `CCOc1ccc(Cc2cc([C@@]34OC[C@@](CO)(C[C@H](O)[C@H]3O)O4)ccc2Cl)cc1` [drawing 251], with 751 mg/200 g body weight of the rat. The same measure, in the same setting: for `CCc1ccc(Cc2cc(C3OC(C)C(O)C(O)C3O)ccc2OC)cc1` (centres unmarked) the value was 439 mg/200 g body weight of the rat; for `Cc1ccc(C2OC(CO)C(O)CC2O)cc1Cc1ccc(-c2ccc(F)cc2)s1` (centres unmarked) [drawing 239], 772 mg/200 g body weight of the rat; for `CCOc1ccc(Cc2cc(C3OC(C)(C)C(O)C(O)C3O)ccc2Cl)cc1` (centres unmarked), 470 mg/200 g body weight of the rat.

Consider `Cc1ccc(C2CC(O)C(O)C(CO)O2)cc1Cc1ccc(-c2ccc(F)cc2)s1` (centres unmarked) [drawing 229], for which the “Urine glucose excretion (mg/200 g body weight of the rat)” value was 698 mg/200 g body weight of the rat. On the same count and under the same terms, for `CCOc1ccc(Cc2cc(C3OC(C)C(O)C(O)C3O)ccc2C)cc1` (centres unmarked) [drawing 216] the value was 700 mg/200 g body weight of the rat. On to `CCOc1ccc(Cc2cc([C@@H]3O[C@H](CO)C[C@H](O)[C@H]3O)ccc2Cl)cc1` [I-D1-4, (1S)-1-[4-chloro-3-(4-ethoxybenzyl)phenyl]-1,4-dideoxy-D-glucose], for which the “urine glucose excretion effect (in words)” value is given as “stronger urine glucose excretion effect”. With `OCC1CC(O)C(O)C(c2ccc(Cl)c(Cc3ccc(O[C@H]4CCOC4)cc3)c2)O1` (some centres unmarked) [drawing 244], the “Urine glucose excretion (mg/200 g body weight of the rat)” value is recorded as 723 mg/200 g body weight of the rat. Consider `Cc1ccc(C2OC(CO)C(O)C(O)C2O)cc1Cc1ccc(-c2ccc(F)cc2)s1` (centres unmarked) [drawing 196], for which the “Urine glucose excretion (mg/200 g body weight of the rat)” value is on record as 655 mg/200 g body weight of the rat. With `CCOc1ccc(Cc2cc(C3OC(CO)CC(O)C3O)ccc2Cl)cc1` (centres unmarked) [drawing 226], the “Urine glucose excretion (mg/200 g body weight of the rat)” value is 880 mg/200 g body weight of the rat. Same read-out and setting: for `CCOc1ccc(Cc2cc([C@]34C[C@@H](O)[C@H](O)[C@](CO)(CO3)O4)ccc2Cl)cc1` [drawing 259] the value was 565 mg/200 g body weight of the rat; for `CCOc1ccc(Cc2cc(C3OC(OC)C(O)C(O)C3O)ccc2Cl)cc1` (centres unmarked), 644 mg/200 g body weight of the rat. Regarding `COc1ccc(Cc2cc(C3CC(O)C(O)C(CO)O3)ccc2Cl)cc1` (centres unmarked), the “Urine glucose excretion (mg/200 g body weight of the rat)” value is listed as 426 mg/200 g body weight of the rat. As to `C#Cc1ccc(Cc2cc(C3OC(C)C(O)C(O)C3O)ccc2Cl)cc1` (centres unmarked), the “Urine glucose excretion (mg/200 g body weight of the rat)” value is listed as 671 mg/200 g body weight of the rat. For the molecule `CCCCOc1ccc(Cc2cc(C3OC(C)C(O)C(O)C3O)ccc2Cl)cc1` (centres unmarked), the “Urine glucose excretion (mg/200 g body weight of the rat)” value is 721 mg/200 g body weight of the rat. The same measure, in the same setting: for `CCc1ccc(Cc2c(Cl)ccc3c2COC32OC(CO)C(O)C(O)C2O)cc1` (centres unmarked) [drawing 198] the value was 587 mg/200 g body weight of the rat; for `COc1ccc(Cc2cc(C3OC(C)C(O)C(O)C3O)ccc2C(F)(F)F)c(F)c1F` (centres unmarked), 622 mg/200 g body weight of the rat. For `C#Cc1ccc(Cc2cc(C3OC(CO)CC(O)C3O)ccc2OC)cc1` (centres unmarked), the “Urine glucose excretion (mg/200 g body weight of the rat)” value is 328 mg/200 g body weight of the rat. Regarding `C=C1OC(c2ccc(Cl)c(Cc3ccc(OC)cc3)c2)C(O)C(O)C1O` (centres unmarked), the “Urine glucose excretion (mg/200 g body weight of the rat)” value is recorded as 410 mg/200 g body weight of the rat. In the case of `CCOc1ccc(Cc2cc(C3SC(CO)C(O)CC3O)c(OC)cc2C)cc1` (centres unmarked) [drawing 257], the “Urine glucose excretion (mg/200 g body weight of the rat)” value is on record as 728 mg/200 g body weight of the rat. For `CCc1ccc(Cc2c(Cl)ccc3c2COC32CC(O)C(O)C(CO)O2)cc1` (centres unmarked) [drawing 248], the “Urine glucose excretion (mg/200 g body weight of the rat)” value was 717 mg/200 g body weight of the rat. With `COc1ccc(Cc2cc(C(C)C)cc(C3OC(C)C(O)C(O)C3O)c2)c(F)c1` (centres unmarked), the “Urine glucose excretion (mg/200 g body weight of the rat)” value was 523 mg/200 g body weight of the rat. Still for that read-out and setting: for `CCOc1ccc(Cc2cc(C3OC(C)C(O)C(O)C3O)ccc2Cl)cc1` (centres unmarked) [drawing 219] the value was 833 mg/200 g body weight of the rat; for `COc1ccc(Cc2cc(C3OC(C)C(O)C(O)C3O)ccc2Cl)cc1` (centres unmarked) [drawing 213], 736 mg/200 g body weight of the rat; for `CCOc1ccc(Cc2cc([C@]34OC[C@](CO)(O3)[C@@H](O)C[C@H]4O)ccc2Cl)cc1` [drawing 260], 711 mg/200 g body weight of the rat. The same measure, in the same setting: for `C#Cc1ccc(Cc2cc(C3OC(CO)CC(O)C3O)ccc2Cl)cc1` (centres unmarked) the value was 213 mg/200 g body weight of the rat; for `CCOc1ccc(Cc2cc(C3SC(CO)C(O)CC3O)c(OC)cc2C)cc1` (centres unmarked) [drawing 256], 766 mg/200 g body weight of the rat; for `CCOc1ccc(Cc2cc(C3OC(CO)C(O)CC3O)ccc2Cl)cc1` (centres unmarked) [drawing 237], 828 mg/200 g body weight of the rat. `Cc1ccc(C2OC(CO)CC(O)C2O)cc1Cc1ccc(-c2ccc(F)cc2)s1` (centres unmarked) [drawing 228]: the “Urine glucose excretion (mg/200 g body weight of the rat)” value is recorded as 801 mg/200 g body weight of the rat. Same read-out and setting: then `OCC1OC(c2ccc(Cl)c(Cc3ccc(O[C@H]4CCOC4)cc3)c2)CC(O)C1O` (some centres unmarked) [drawing 234], with 744 mg/200 g body weight of the rat; and `COc1ccc(Cc2cc(C)cc(C3OC(C)C(O)C(O)C3O)c2)cc1F` (centres unmarked), with 539 mg/200 g body weight of the rat; and `CCc1ccc(Cc2c(Cl)ccc3c2COC32CC(O)CC(CO)O2)cc1` (centres unmarked) [drawing 254], with 677 mg/200 g body weight of the rat. On to `CCOc1ccc(Cc2cc(C3CC(O)C(O)C(CO)S3)c(OC)cc2C)cc1` (centres unmarked) [drawing 249], for which the “Urine glucose excretion (mg/200 g body weight of the rat)” value is recorded as 786 mg/200 g body weight of the rat. Still for that read-out and setting: then `CCOc1ccc(Cc2cc(C3CCC(O)C(CO)S3)c(OC)cc2C)cc1` (centres unmarked) [drawing 263], with 730 mg/200 g body weight of the rat; and `CCOc1ccc(Cc2cc(C3SC(CO)C(O)C(O)C3O)c(OC)cc2C)cc1` (centres unmarked) [drawing 211], with 625 mg/200 g body weight of the rat. In the case of `CCOc1ccc(Cc2cc([C@@H]3C[C@@H](O)[C@H](O)[C@@H](CO)O3)ccc2Cl)cc1` [I-D1-2, (1S)-1-[4-chloro-3-(4-ethoxybenzyl)phenyl]-1,2-dideoxy-D-glucose], the “urine glucose excretion effect (in words)” value is reported as “stronger urine glucose excretion effect”. As to `CCCOc1ccc(Cc2cc(C3OC(C)C(O)C(O)C3O)ccc2Cl)cc1` (centres unmarked) [drawing 217], the “Urine glucose excretion (mg/200 g body weight of the rat)” value is 712 mg/200 g body weight of the rat. As for `CCc1ccc(Cc2cc(C3CC(O)C(O)C(CO)O3)ccc2Cl)cc1` (centres unmarked), the “Urine glucose excretion (mg/200 g body weight of the rat)” value is given as 412 mg/200 g body weight of the rat. As to `COc1ccc(Cc2cc(C3OC(C)C(O)C(O)C3O)ccc2Cl)cc1` (centres unmarked) [drawing 243], the “Urine glucose excretion (mg/200 g body weight of the rat)” value was 457 mg/200 g body weight of the rat.

`CCc1ccc(Cc2c(Cl)ccc3c2COC32OC(C)C(O)C(O)C2O)cc1` (centres unmarked) [drawing 255]: the “Urine glucose excretion (mg/200 g body weight of the rat)” value is 755 mg/200 g body weight of the rat.
